Reference: patent publication US8173808B2, “Substituted naphthalenyl-pyrimidine compounds” (ArQule, Inc., priority 2009, dated 2012)
Where a name gives a salt, the structure may show the parent alone.

Which melting point does the source give for `CCCN(C)CCCN1CCN(c2cc(-c3ccnc(NCc4cccc(OC)c4)n3)cc3ccc(OC)cc23)CC1` (as salt: hydrochloride) [Compound 199, 4-(6-methoxy-4-(4-(3-(methyl(propyl)amino)propyl)piperazin-1-yl)naphthalen-2-yl)-N-(3-methoxybenzyl)pyrimidin-2-amine] here?
The melting point was 156 to 160 °C.

With `COc1cccc(CNc2nccc(-c3cc(N4CCN(CCCN5CCC5)CC4)c4cc(OC)ccc4c3)n2)c1` (as salt: hydrochloride) [Compound 200, 4-(4-(4-(3-(azetidin-1-yl)propyl)piperazin-1-yl)-6-methoxynaphthalen-2-yl)-N-(3-methoxybenzyl)pyrimidin-2-amine] as the molecule, how does the melting point read?
Its melting point is 122 to 130 °C.

Which melting point does the source give for `CCN(C)CCCN1CCN(c2cc(-c3ccnc(NCc4cccc(OC)c4)n3)cc3ccc(OC)cc23)CC1` (as salt: hydrochloride) [Compound 201, 4-(4-(4-(3-(ethyl(methyl)amino)propyl)piperazin-1-yl)-6-methoxynaphthalen-2-yl)-N-(3-methoxybenzyl)pyrimidin-2-amine] here?
Its melting point is 160 to 169 °C.

Which melting point does the source give for `COc1cccc(CNc2nccc(-c3cc(N4CCN(CCCN(C)C5CCCCC5)CC4)c4cc(OC)ccc4c3)n2)c1` (as salt: hydrochloride) [Compound 202, 4-(4-(4-(3-(cyclohexyl(methyl)amino)propyl)piperazin-1-yl)-6-methoxynaphthalen-2-yl)-N-(3-methoxybenzyl)pyrimidin-2-amine] here?
Its melting point is 155 to 161 °C.

Which melting point does the source give for `COCCCNc1nccc(-c2cc(N3CCNCC3)c3cc(OC)ccc3c2)n1` [Compound 113, 4-(6-methoxy-4-piperazin-1-yl-2-naphthyl)-N-(3-methoxypropyl)pyrimidin-2-amine] here?
Its melting point is 136 to 138 °C.

For `COc1ccc2cc(-c3ccnc(NCCCN(C)C)n3)cc(N3CCNCC3)c2c1` [Compound 114, N′-[4-(6-methoxy-4-piperazin-1-yl-2-naphthyl)pyrimidin-2-yl]-N,N-dimethylpropane-1,3-diamine], which melting point is on record?
Its melting point is 188 to 190 °C.

Which melting point does the source give for `COc1cccc(CCNc2nccc(-c3cc(N4CCNCC4)c4cc(OC)ccc4c3)n2)c1` [Compound 115, N-[2-(3-methoxyphenyl)ethyl]-4-(6-methoxy-4-piperazin-1-yl-2-naphthyl)pyrimidin-2-amine] here?
The melting point was 142 to 144 °C.

For `CNc1nccc(-c2cc(NC(=O)CN(C)C)c3cc(OC)ccc3c2)n1` [Compound 137, 2-(dimethylamino)-N-(7-methoxy-3-(2-(methylamino)pyrimidin-4-yl)naphthalen-1-yl)acetamide], which melting point is on record?
The melting point was 70 to 73 °C.

For `CNc1nccc(-c2cc(NC(=O)CNCCO)c3cc(OC)ccc3c2)n1` [Compound 138, 2-((2-hydroxyethyl)amino)-N-(7-methoxy-3-(2-(methylamino)pyrimidin-4-yl)naphthalen-1-yl)acetamide], which melting point is on record?
The melting point was 169 to 172 °C.

With `COc1ccc2cc(-c3ccnc(N(C)C)n3)cc(NC3CCN(c4ncnc5[nH]nc(Br)c45)CC3)c2c1` [Compound 144, 4-(4-((1-(3-bromo-1H-pyrazolo[3,4-d]pyrimidin-4-yl)piperidin-4-yl)amino)-6-methoxynaphthalen-2-yl)-N,N-dimethylpyrimidin-2-amine] as the molecule, how does the melting point read?
Its melting point is 167 to 172 °C.

With `COCCCNc1nccc(-c2cc(N3CCN(c4ncnc5[nH]nc(Br)c45)CC3)c3cc(OC)ccc3c2)n1` [Compound 177, 4-{4-[4-(3-bromo-1H-pyrazolo[3,4-d]pyrimidin-4-yl)piperazin-1-yl]-6-methoxy-2-naphthyl}-N-(3-methoxypropyl)pyrimidin-2-amine] as the molecule, how does the melting point read?
The melting point was 225 to 227 °C.

With `COc1ccc2cc(-c3ccnc(NCCCN(C)C)n3)cc(N3CCN(c4ncnc5[nH]nc(Br)c45)CC3)c2c1` [Compound 178, N1-(4-(4-(4-(3-bromo-1H-pyrazolo[3,4-d]pyrimidin-4-yl)piperazin-1-yl)-6-methoxynaphthalen-2-yl)pyrimidin-2-yl)-N3,N3-dimethylpropane-1,3-diamine] as the molecule, how does the melting point read?
Its melting point is 152 to 155 °C.

For `COc1ccc2cc(-c3ccnc(NCCc4ccc(OC)c(OC)c4)n3)cc(N3CCN(c4ncnc5[nH]nc(Br)c45)CC3)c2c1` [Compound 179, 4-{4-[4-(3-bromo-1H-pyrazolo[3,4-d]pyrimidin-4-yl)piperazin-1-yl]-6-methoxy-2-naphthyl}-N-[2-(3,4-dimethoxyphenyl)ethyl]pyrimidin-2-amine], which melting point is on record?
The melting point was 130 to 133 °C.

Which melting point does the source give for `COc1cccc(CCNc2nccc(-c3cc(N4CCN(c5ncnc6[nH]nc(Br)c56)CC4)c4cc(OC)ccc4c3)n2)c1` [Compound 180, 4-{4-[4-(3-bromo-1H-pyrazolo[3,4-d]pyrimidin-4-yl)piperazin-1-yl]-6-methoxy-2-naphthyl}-N-[2-(3-methoxyphenyl)ethyl]pyrimidin-2-amine] here?
Its melting point is 200 to 203 °C.

With `CNc1nccc(-c2cc(NCCCNc3ncnc4[nH]nc(Br)c34)c3cc(OC)ccc3c2)n1` [Compound 183, N1-(3-bromo-1H-pyrazolo[3,4-d]pyrimidin-4-yl)-N3-(7-methoxy-3-(2-(methylamino)pyrimidin-4-yl)naphthalen-1-yl)propane-1,3-diamine] as the molecule, how does the melting point read?
The melting point was 145 to 148 °C.

Which melting point does the source give for `CNc1nccc(-c2cc(NC(=O)c3ccc(C(C)(C)C)cc3)c3cc(OC)ccc3c2)n1` [Compound 184, 4-tert-butyl-N-{7-methoxy-3-[2-(methylamino)pyrimidin-4-yl]-1-naphthyl}benzamide] here?
The melting point was 231 to 232 °C.

For `CNc1nccc(-c2cc(NC(=O)c3ccccc3)c3cc(OC)ccc3c2)n1` [Compound 185, N-{7-methoxy-3-[2-(methylamino)pyrimidin-4-yl]-1-naphthyl}benzamide], which melting point is on record?
The melting point was 201 to 203 °C.

With `CNc1nccc(-c2cc(NC(C)=O)c3cc(OC)ccc3c2)n1` [Compound 186, N-{7-methoxy-3-[2-(methylamino)pyrimidin-4-yl]-1-naphthyl}acetamide] as the molecule, how does the melting point read?
Its melting point is 234 to 235 °C.

For `CNc1nccc(-c2cc(NC(=O)c3ccc(C(F)(F)F)cc3)c3cc(OC)ccc3c2)n1` [Compound 187, N-{7-methoxy-3-[2-(methylamino)pyrimidin-4-yl]-1-naphthyl}-4-(trifluoromethyl)benzamide], which melting point is on record?
Its melting point is 227 to 229 °C.

For `CNc1nccc(-c2cc(NC(=O)c3ccc(OC)cc3)c3cc(OC)ccc3c2)n1` [Compound 188, 4-methoxy-N-{7-methoxy-3-[2-(methylamino)pyrimidin-4-yl]-1-naphthyl}benzamide], which melting point is on record?
Its melting point is 214 to 215 °C.

Which melting point does the source give for `CNc1nccc(-c2cc(NCCCNCCCN(C)C)c3cc(OC)ccc3c2)n1` [Compound 191, N′-[3-({7-methoxy-3-[2-(methylamino)pyrimidin-4-yl]-1-naphthyl}amino)propyl]-N,N-dimethylpropane-1,3-diamine] here?
Its melting point is 142 to 144 °C.

Which melting point does the source give for `CNc1nccc(-c2cc(NCCCSC(=N)N)c3cc(OC)ccc3c2)n1` [Compound 192, 3-({7-methoxy-3-[2-(methylamino)pyrimidin-4-yl]-1-naphthyl}amino)propyl imidothiocarbamate] here?
Its melting point is 94 to 97 °C.

For `COc1cccc(CNc2nccc(-c3cc(N4CCN(CCCN5CCCCC5)CC4)c4cc(OC)ccc4c3)n2)c1` [Compound 194, 4-(6-methoxy-4-(4-(3-(piperidin-1-yl)propyl)piperazin-1-yl)naphthalen-2-yl)-N-(3-methoxybenzyl)pyrimidin-2-amine], which melting point is on record?
Its melting point is 63 to 75 °C.
